# Test results reported in ChEMBL document CHEMBL5620361, “A prodrug of the capsid assembly modulator improved druggability and lowing HBsAg and HBeAg for the treatment of chronic hepatitis B” (Eur J Med Chem, 2023).
# “And” between values parts separate entries of the source, which are not always exact repeats. Equal values may be shown once. The source made the active and inactive calls. No cut-off for these calls is given here.
# What was measured:
# Hepatitis B virus [1] = assay: Antiviral activity against HBV in human HepG2.2.15 cells harboring HBV genome assessed as formation of fast-migrating capsids lacking capsid-associated HBV DNA upto 80 nM by native agarose gel electrophoresis; format: functional, organism-based
# Hepatitis B virus [2] = assay: Antiviral activity against HBV in human HepG2.2.15 cells harboring HBV genome assessed as reduction in HBV DNA incubated for 8 days by real-time PCR analysis; format: functional, organism-based
# Hepatitis B virus [3] = assay: Antiviral activity against HBV in human HepG2.2.15 cells harboring HBV genome assessed as reduction in HBV rcDNA incubated for 8 days by Southern blot analysis; format: functional, organism-based; details: dose <= 800.0 nM, time 8.0 day
# Hepatitis B virus [4] = assay: Antiviral activity against HBV in human HepG2.2.15 cells harboring HBV genome assessed as reduction in HBV ssDNA incubated for 8 days by Southern blot analysis; format: functional, organism-based; details: dose <= 800.0 nM, time 8.0 day
# [5] = Cytotoxicity against human HepG2.2.15 cells harboring HBV genome incubated for 8 days by MTT assay; format: toxicity, cell-based, HepG2 2.2.15; details: time 8 day
# HepG2.2.15 [6] = assay: Inhibition of HBsAg secretion in human HepG2.2.15 cells harboring HBV genome incubated for 8 days; format: functional, cell-based; details: Hepatitis B virus, time 8.0 day
# HepG2.2.15 [7] = assay: Inhibition of HBeAg secretion in human HepG2.2.15 cells harboring HBV genome incubated for 8 days; format: functional, cell-based; details: Hepatitis B virus, time 8.0 day
# [8] = Prodrug conversion in ICR mouse assessed as Cmax of 4-((4-(5-chloro-2-fluoro-6-((3-hydroxypropyl)amino)pyridin-3-yl)-1-oxophthalazin-2(1H)-yl)methyl)benzonitrile metabolite at 20 mg/kg, po measured for 24 hrs by LC-MS/MS analysis; format: ADME, organism-based; details: in vivo
# [9] = Prodrug conversion in ICR mouse assessed as AUClast of 3-((3-chloro-5-(3-(4-cyanobenzyl)-4-oxo-3,4-dihydrophthalazin-1-yl)-6-fluoropyridin-2-yl)amino)propanoic acid metabolite at 20 mg/kg, po measured for 24 hrs by LC-MS/MS analysis; format: ADME, organism-based; details: in vivo
# [10] = Prodrug conversion in ICR mouse assessed as Cmax of 3-((3-chloro-5-(3-(4-cyanobenzyl)-4-oxo-3,4-dihydrophthalazin-1-yl)-6-fluoropyridin-2-yl)amino)propanoic acid metabolite at 20 mg/kg, po measured for 24 hrs by LC-MS/MS analysis; format: ADME, organism-based; details: in vivo
# [11] = Prodrug conversion in ICR mouse assessed as AUClast of 4-((4-(5-chloro-2-fluoro-6-((3-hydroxypropyl)amino)pyridin-3-yl)-1-oxophthalazin-2(1H)-yl)methyl)benzonitrile metabolite at 20 mg/kg, po measured for 24 hrs by LC-MS/MS analysis; format: ADME, organism-based; details: in vivo
# [12] = Tmax in ICR mouse at 20 mg/kg, po measured for 24 hrs byb LC-MS/MS analysis; format: ADME, organism-based; details: in vivo
# [13] = Half life in ICR mouse at 20 mg/kg, po measured for 24 hrs byb LC-MS/MS analysis; format: ADME, organism-based; details: in vivo
# [14] = AUClast in ICR mouse at 20 mg/kg, po measured for 24 hrs byb LC-MS/MS analysis; format: ADME, organism-based; details: in vivo
# [15] = Cmax in ICR mouse at 20 mg/kg, po measured for 24 hrs byb LC-MS/MS analysis; format: ADME, organism-based; details: in vivo
# [16] = Prodrug conversion in ICR mouse assessed as Tmax of 3-((3-chloro-5-(3-(4-cyanobenzyl)-4-oxo-3,4-dihydrophthalazin-1-yl)-6-fluoropyridin-2-yl)amino)propanoic acid metabolite at 20 mg/kg, po measured for 24 hrs by LC-MS/MS analysis; format: ADME, organism-based; details: in vivo
# Mus musculus [17] = assay: Effect on intrahepatic HBcAg expression in Balb/c mouse model infected with adeno-associated virus harbouring HBV 1.3 genome at 1 mg/kg, po qd for 4 weeks by Western blot analysis; format: functional, organism-based
# Mus musculus [18] = assay: Effect on HBsAg expression in Balb/c mouse model infected with adeno-associated virus harbouring HBV 1.3 genome at 1 mg/kg, po qd for 7 weeks followed by drug removal measured after 8 weeks by chemiluminescence immunoassay; format: functional, organism-based
# Hepatitis B virus [19] = assay: Antiviral activity against HBV in Balb/c mouse model infected with adeno-associated virus harbouring HBV 1.3 genome assessed as reduction in intrahepatic HBV DNA at 1 mg/kg, po qd for 4 weeks by Southern blot analysis; format: functional, organism-based
# Hepatitis B virus [20] = assay: Antiviral activity against HBV in Balb/c mouse model infected with adeno-associated virus harbouring HBV 1.3 genome assessed as reduction in plasma HBV DNA at 1 mg/kg, po qd for 7 weeks followed by drug removal measured after 8 weeks by real-time PCR analysis; format: functional, organism-based
# Mus musculus [21] = assay: Effect on HBeAg expression in Balb/c mouse model infected with adeno-associated virus harbouring HBV 1.3 genome at 1 mg/kg, po qd for 7 weeks followed by drug removal measured after 8 weeks by chemiluminescence immunoassay; format: functional, organism-based
# Hepatitis B virus [22] = assay: Antiviral activity against HBV in mouse model infected with adeno-associated virus harbouring HBV genome assessed as log reduction in HBeAg at 20 mg/kg, po qd for 8 weeks; format: functional
# Hepatitis B virus [23] = assay: Antiviral activity against HBV in mouse model infected with adeno-associated virus harbouring HBV genome assessed as log reduction in HBV DNA at 20 mg/kg, po qd for 8 weeks; format: functional
# Hepatitis B virus [24] = assay: Antiviral activity against HBV in mouse model infected with adeno-associated virus harbouring HBV genome assessed as log reduction in HBsAg at 20 mg/kg, po qd for 8 weeks; format: functional
# [25] = Prodrug conversion in ICR mouse assessed as half life of 3-((3-chloro-5-(3-(4-cyanobenzyl)-4-oxo-3,4-dihydrophthalazin-1-yl)-6-fluoropyridin-2-yl)amino)propanoic acid metabolite at 20 mg/kg, po measured for 24 hrs by LC-MS/MS analysis; format: ADME, organism-based; details: in vivo
# Hepatitis B virus [26] = assay: Antiviral activity against HBV in Balb/c mouse model infected with adeno-associated virus harbouring HBV 1.3 genome assessed as reduction in serum HBV DNA administered orally twice daily for 4 weeks by real-time PCR analysis; format: functional, organism-based; details: dose 25-75 mg/kg, route po
# [27] = Prodrug conversion in ICR mouse assessed as Tmax of 4-((4-(5-chloro-2-fluoro-6-((3-hydroxypropyl)amino)pyridin-3-yl)-1-oxophthalazin-2(1H)-yl)methyl)benzonitrile metabolite at 20 mg/kg, po measured for 24 hrs by LC-MS/MS analysis; format: ADME, organism-based; details: in vivo
# Hepatitis B virus [28] = assay: Antiviral activity against HBV in Balb/c mouse model infected with adeno-associated virus harbouring HBV 1.3 genome assessed as reduction in cytoplasmic HBcAg level at 50 to 75 mg/kg, po bid for 4 weeks by IHC analysis; format: functional, organism-based; details: dose 50-75 mg/kg
# [29] = Prodrug conversion in ICR mouse assessed as half life of 4-((4-(5-chloro-2-fluoro-6-((3-hydroxypropyl)amino)pyridin-3-yl)-1-oxophthalazin-2(1H)-yl)methyl)benzonitrile metabolite at 20 mg/kg, po measured for 24 hrs by LC-MS/MS analysis; format: ADME, organism-based; details: in vivo
# [30] = Toxicity in Balb/c mouse model infected with adeno-associated virus harbouring HBV 1.3 genome at 100 mg/kg, po bid; format: organism-based; details: in vivo
# Hepatitis B virus [31] = assay: Antiviral activity against HBV in Balb/c mouse model infected with adeno-associated virus harbouring HBV 1.3 genome assessed as reduction in plasma HBV DNA at 100 mg/kg, po bid for 7 weeks followed by drug removal measured after 8 weeks by real-time PCR analysis; format: functional, organism-based
# Hepatitis B virus [32] = assay: Antiviral activity against HBV in Balb/c mouse model infected with adeno-associated virus harbouring HBV 1.3 genome assessed as reduction in intrahepatic HBcAg level administered orally twice daily for 4 weeks by Western blot analysis; format: functional, organism-based; details: dose 50-75 mg/kg, route po
# Hepatitis B virus [33] = assay: Antiviral activity against HBV in Balb/c mouse model infected with adeno-associated virus harbouring HBV 1.3 genome assessed as reduction in plasma HBsAg level at 100 mg/kg, po bid for 7 weeks followed by drug removal measured after 8 weeks by chemiluminescence immunoassay; format: functional, organism-based
# Hepatitis B virus [34] = assay: Antiviral activity against HBV in Balb/c mouse model infected with adeno-associated virus harbouring HBV 1.3 genome assessed as reduction in plasma HBeAg level at 100 mg/kg, po bid for 7 weeks followed by drug removal measured after 8 weeks by chemiluminescence immunoassay; format: functional, organism-based
# Hepatitis B virus [35] = assay: Antiviral activity against HBV in Balb/c mouse model infected with adeno-associated virus harbouring HBV 1.3 genome assessed as reduction in intrahepatic HBV DNA administered orally twice daily for 4 weeks by Southern blot analysis; format: functional, organism-based; details: dose 50-75 mg/kg, route po
SMILES,Activity (Hepatitis B virus [1]),Activity (Hepatitis B virus [3]),Activity (Hepatitis B virus [4]),CC50 at 192 h [5],inhibition (HepG2.2.15 [6]),inhibition (HepG2.2.15 [7]),Cmax [8],AUClast [9],Cmax [10],AUClast [11],Tmax [16],further results
N#Cc1ccc(Cn2nc(-c3cc(Cl)c(NCCC(=O)O)nc3F)c3ccccc3c2=O)cc1,Active,Dose-Dependent Effect,Dose-Dependent Effect,> 100 µM,inactive,inactive,,,,,,EC50 (Hepatitis B virus [2]): 1.29 µM and 0.17 µM
"CC(C)OC(=O)[C@@H](C)N[P@](=O)(OCCCNc1nc(F)c(-c2nn(Cc3ccc(C#N)cc3)c(=O)c3ccccc23)cc1Cl)Oc1ccccc1 (single isomer, unassigned)",,,,,,,48.2 ng/mL,2727 ng·h/mL,321 ng/mL,186 ng·h/mL,,
N#Cc1ccc(Cn2nc(-c3cc(Cl)c(NCCCO)nc3F)c3ccccc3c2=O)cc1,Active,Dose-Dependent Effect,Dose-Dependent Effect,> 100 µM,inactive,inactive,,498 ng·h/mL,62.2 ng/mL,,2.67 h,Tmax [12]: 2 h; half-life [13]: 0.99 h; AUC(0-t) at 24 h [14]: 61.4 ng·h/mL; Cmax [15]: 27 ng/mL
C=C1[C@H](CO)[C@@H](O)C[C@@H]1n1cnc2c(=O)[nH]c(N)nc21 [ENTECAVIR ANHYDROUS],,,,> 1 µM,,,,,,,,Activity (Mus musculus [17]): inactive; Activity (Mus musculus [18]): inactive; Activity (Hepatitis B virus [19]): Active; Activity (Hepatitis B virus [20]): Active; Activity (Mus musculus [21]): inactive
CCOC(=O)C1=C(CN2CCN3C(=O)N(CC(C)(C)C(=O)O)C[C@@H]3C2)N=C(c2nccs2)N[C@H]1c1cccc(F)c1C [LINVENCORVIR],,,,,,,,,,,,log(activity) (Hepatitis B virus [22]): 1.5; log(activity) (Hepatitis B virus [23]): 3; log(activity) (Hepatitis B virus [24]): 2.4
CC(C)[C@H](N)C(=O)OCCCNc1nc(F)c(-c2nn(Cc3ccc(C#N)cc3)c(=O)c3ccccc23)cc1Cl,Active,Dose-Dependent Effect,Dose-Dependent Effect,63.1 µM,inactive,inactive,1065 ng/mL,13560 ng·h/mL,3729 ng/mL,2296 ng·h/mL,1.67 h,t1/2 [25]: 2.85 h; Activity (Hepatitis B virus [26]): Dose-Dependent Effect; Tmax [27]: 0.42 h; Activity (Hepatitis B virus [28]): Dose-Dependent Effect; t1/2 [29]: 2.32 h; Activity [30]: Non-Toxic; Activity (Hepatitis B virus [31]): Active; Activity (Hepatitis B virus [32]): Dose-Dependent Effect; Activity (Hepatitis B virus [33]): Active; Activity (Hepatitis B virus [34]): Active; Activity (Hepatitis B virus [35]): Dose-Dependent Effect
